Assay results reported in patent US20260216229A1, “PROGRAMMABLE DNA PROTEOLYSIS TARGET CHIMERAS AND METHODS OF THEIR USE” (ARIZONA BOARD OF REGENTS ON BEHALF OF ARIZONA STATE …, priority 2023, published 2026).

Legend:
Type in all cases: cell-based
CDK6 [1] = molecular target: T1, CDK6 (Homo sapiens, UniProt Q00534); experiment: Western blot of CDK6 degradation in U251 cells transfected with DNA-PROTACs
T1 construct: Western blot analysis of CDK6 degradation in U251 cells treated with distance-based DNA-PROTACs; endogenous in cells; host or cells: U-251 MG (U251) glioblastoma cells
T1 sequence (Q00534 whole entry): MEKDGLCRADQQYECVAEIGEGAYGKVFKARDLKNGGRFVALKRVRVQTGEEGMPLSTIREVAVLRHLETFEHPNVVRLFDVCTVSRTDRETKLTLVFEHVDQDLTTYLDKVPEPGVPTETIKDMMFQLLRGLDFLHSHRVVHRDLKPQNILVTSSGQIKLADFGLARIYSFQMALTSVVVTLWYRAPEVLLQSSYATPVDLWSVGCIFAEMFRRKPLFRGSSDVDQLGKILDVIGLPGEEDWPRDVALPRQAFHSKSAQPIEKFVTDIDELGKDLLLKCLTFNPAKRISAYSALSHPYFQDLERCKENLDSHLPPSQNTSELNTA
Experimental: U-251 MG Glioblastoma Cell Line was grown in Dulbecco's Modified Eagles Medium (DMEM) containing 10% heat inactivated fetal bovine serum (FBS), streptomycin (5 μg/mL) and 5 U/mL penicillin 95 U/mL). All cell lines were maintained, and cell culture experiments were carried out in humidified incubators at 37° C. and 5% CO2 supplementation.
One day prior to DNA-PROTACs transfection, cells were propagated into 6 cm cell culture dishes containing appropriate complete growth medium. Prior to transfection, complete medium was replaced with transfection medium (5% FBS, no Penstrep). DNA-PROTACs transfection was performed using lipofectamine 3000 reagent according to the protocols provided by the manufacture. All transfections were carried out in 6-cm dishes with 3 mL of media and concentrations of DNA-PROTACs were calculated according to this volume (3 mL). Briefly, for 50 nM concentration, 5 μL from a 30 µM DNA-PROTACs stock and 12 μL p3000 reagent was added to a tube containing 125 μL of OPTIM-MEM and 8 μL of Lipofectamine 3000 reagent was added to a separate tube containing 125 μL of OPTIM-MEM. Two tubes were incubated for 5 minutes at room temperature and DNA-PROTACs containing OPTI-MEM was then slowly added to the second tube with lipo3000. The solution in the tube was mixed well by pipetting up and down several times. After incubating for 15-20 minutes at room temperature, 250 μL of DNA-PROTACs-lipofectamine complex was added drop wise onto cells containing the transfection medium. Transfection medium was mixed well before transferring the plate into the incubator. After appropriate time, cells were either harvested or replaced with fresh medium and incubated for desired time point prior to harvesting. For proteasome inhibition assay, 5 μM of MG-132 was incubated with cells for 2 h prior to transfection of DNA-PROTACs. Then, cells were incubated for another 12 h before lysing cells. Cell lysates were prepared by incubating cells in RIPA lysis buffer (25 mM Tris pH 7.6, 150 mM NaCl, 1% NP40, 1% deoxycholate, 0.1% SDS, 1× protease inhibitor cocktail from Roche and 1 mM of PMSF) on ice for 30 minutes and cell lysate was clarified by centrifugation at high speed (15 000 rpm) for 15 minutes. Clear supernatant was collected for further experiments.
Protein concentration in all the cell lysates were measured by BCA protein assay kit and equal amounts from each lysate were mixed with 4×loading dye and boiled for 5 minutes followed by 2 minutes centrifugation prior to loading into SDS-PAGE gel. Next proteins on the SDS-PAGE gel were transferred to a Nitrocellulose membrane by western blotting and the membrane was blocked with 5% milk in TBST (0.05% Tween 20) for 1 h. Primary antibodies (all Abcam antibodies were diluted 1:5000) were prepared in TBST with 2.5% milk and membranes were incubated overnight at 4° C. On the following day, membrane was washes for 15 minutes (Incubate for three times, 5 minutes each) and appropriate secondary antibodies (1:5000) were prepared in TBST and incubated with the membrane for 1 h at room temperature (RT). Membrane was washed for 15 minutes with TBST (incubate for three times, […]) prior to imaging.
The degradation efficiency of various DNA-PROTACs was evaluated through their transfection into U251 cells, conducted simultaneously to ensure uniform experimental conditions. A double-stranded DNA sequence without any ligand was utilized as a negative control, providing a baseline for comparison. Following a 14-hour treatment period, a duration selected based on preliminary time-course studies, the cells were harvested using trypsin digestion. The lysates obtained were then subjected to SDS-PAGE, followed by Western blot analysis to assess protein degradation. […] This finding highlights the efficacy of DNA-PROTAC V02 in targeting and reducing CDK6 protein levels. In comparison, DNA-PROTAC Versions 03 and 04 also facilitated protein degradation, albeit with varying degrees of efficiency. […]

CDK4 = molecular target: T2, CDK4 (Homo sapiens, UniProt P11802); experiment: Western blot of CDK4 degradation in U251 cells transfected with DNA-PROTACs
T2 construct: Dose- and Time-dependent Degradation of CDK6 and CDK4 in U251 Cells; endogenous in cells; host or cells: U-251 MG (U251) glioblastoma cells
T2 sequence (P11802 whole entry): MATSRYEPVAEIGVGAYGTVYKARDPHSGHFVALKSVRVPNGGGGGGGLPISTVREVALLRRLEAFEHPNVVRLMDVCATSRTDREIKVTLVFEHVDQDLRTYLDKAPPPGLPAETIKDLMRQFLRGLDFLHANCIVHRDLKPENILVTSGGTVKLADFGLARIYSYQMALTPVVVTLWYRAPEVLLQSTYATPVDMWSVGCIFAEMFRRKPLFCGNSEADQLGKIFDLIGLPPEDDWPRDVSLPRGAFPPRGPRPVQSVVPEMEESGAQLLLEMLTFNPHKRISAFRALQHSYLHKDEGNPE
Experimental: One day prior to DNA-PROTACs transfection, cells were propagated into 6 cm cell culture dishes containing appropriate complete growth medium. Prior to transfection, complete medium was replaced with transfection medium (5% FBS, no Penstrep). DNA-PROTACs transfection was performed using lipofectamine 3000 reagent according to the protocols provided by the manufacture. All transfections were carried out in 6-cm dishes with 3 mL of media and concentrations of DNA-PROTACs were calculated according to this volume (3 mL). Briefly, for 50 nM concentration, 5 μL from a 30 µM DNA-PROTACs stock and 12 μL p3000 reagent was added to a tube containing 125 μL of OPTIM-MEM and 8 μL of Lipofectamine 3000 reagent was added to a separate tube containing 125 μL of OPTIM-MEM. […]

CDK4 mRNA = experiment: RT-PCR of CDK4 mRNA expression in U251 cells; conditions: 100 nM, 6 hours
Experimental: (§1) Subsequent RNA isolation and RT-PCR detection enabled a quantitative assessment of CDK6 and CDK4 mRNA expression levels. […] To further corroborate the mechanistic intricacies of DNA-PROTAC-V02, we probed its interaction with the proteasome pathway. […] Following an 8-hour treatment period, cells were collected, and Western blot analysis was conducted.

CDK6 mRNA = experiment: RT-PCR of CDK6 mRNA expression in U251 cells; conditions: 100 nM, 6 hours
Experimental: as §1

CDK6 [2] = molecular target: T1, CDK6; experiment: Immunofluorescence staining / confocal analysis of CDK6 in U251 cells; conditions: 20 nM and 100 nM, compared to controls dsDNA, dsDNA-CDK6-i, dsDNA-E3-i
Experimental: U-251 MG cells were seeded into 10 mm confocal dishes (Ibidi) and incubated overnight. Subsequently, cells were quickly washed thrice with ice-cold PBS and then fixed with 4% paraformaldehyde for 20 min. After fixation, cells were washed with PBS and permeabilized with 0.1% Triton X-100 at room temperature for 10 min. The samples were then incubated in a blocking solution for 1 h at room temperature, followed by incubation with primary antibody overnight at 4° C. The primary antibody used was mouse CDK6 antibody (Abacm, 1:100). After washing thrice with PBST (PBS with 0.1% Tween 20), the samples were incubated with the secondary antibody in the dark for 1.5 h at room temperature. Cells were washed 3 times in PBST for 5 minutes each then incubated in the appropriate secondary antibodies supplemented CoraLite488-conjugated Goat Anti-Rabbit IgG(H+L) (Proteintech, 1:100) for 3 hrs. The nucleus was counterstained with DAPI (Hoechst 3342, 1 ug/mL) for 20 mins followed by 3 times wash in PBST. Finally, the slides were Imaging by Nikon X confocal.

CDK6 [3] = molecular target: T1, CDK6; experiment: Proteasome inhibition (MG132) assay of CDK6 degradation in U251 cells; conditions: 8-hour treatment
Experimental: One day prior to DNA-PROTACs transfection, cells were propagated into 6 cm cell culture dishes containing appropriate complete growth medium. Prior to transfection, complete medium was replaced with transfection medium (5% FBS, no Penstrep). DNA-PROTACs transfection was performed using lipofectamine 3000 reagent according to the protocols provided by the manufacture. All transfections were carried out in 6-cm dishes with 3 mL of media and concentrations of DNA-PROTACs were calculated according to this volume (3 mL). Briefly, for 50 nM concentration, 5 μL from a 30 µM DNA-PROTACs stock and 12 μL p3000 reagent was added to a tube containing 125 μL of OPTIM-MEM and 8 μL of Lipofectamine 3000 reagent was added to a separate tube containing 125 μL of OPTIM-MEM. Two tubes were incubated for 5 minutes at room temperature and DNA-PROTACs containing OPTI-MEM was then slowly added to the second tube with lipo3000. The solution in the tube was mixed well by pipetting up and down several times. […]
Protein concentration in all the cell lysates were measured by BCA protein assay kit and equal amounts from each lysate were mixed with 4×loading dye and boiled for 5 minutes followed by 2 minutes centrifugation prior to loading into SDS-PAGE gel. […]
Subsequent RNA isolation and RT-PCR detection enabled a quantitative assessment of CDK6 and CDK4 mRNA expression levels. […]

Substance	CDK6 protein degradation (target selectivity, controls) (CDK6 [1])	CDK4 protein degradation (target selectivity, controls) (CDK4)	CDK4 mRNA levels (RT-PCR) (CDK4 mRNA)	CDK6 degradation (CDK6 [1]; 50 nM)	time for which CDK6 degradation was sustained (CDK6 [1]; 50 nM, time course)	CDK6 protein degradation (Western blot) (CDK6 [1]; 14-hour treatment, 50 nM and 100 nM, vs ligand-free dsDNA control)	concentration at which significant CDK6 degradation begins (CDK6 [1]; 14 hours, angular series) [nM]	concentration at which dose-dependent degradation of CDK6 commences (CDK6 [1]; dose series) [nM]	CDK6 mRNA levels (RT-PCR) (CDK6 mRNA)	intracellular green fluorescence (CDK6 immunofluorescence) (CDK6 [2])	CDK6 protein (Western blot) without MG132 treatment (CDK6 [3]; 50 nM, no MG132)	CDK6 protein (Western blot) with MG132 pre-treatment (CDK6 [3]; MG132 pre-treatment 1 hour, then 50 nM)
DNA-E3 ligand: control: dsDNA with E3 ligand only (chain 1 CTCCATCTATTCTACGCCA; chain 2 TTCTACGCCA; chain 1: DNA, linkages s2 o13 s3 (s phosphorothioate, o phosphodiester), methylation of C not given here; chain 2: DNA, linkages o6 s3 (s phosphorothioate, o phosphodiester), methylation of C not given here; further chemistry not fully specified) [reference compound]	did not induce notable protein degradation	did not induce notable protein degradation										
DNA-PROTAC-V02: DNA duplex of E3-i (pomalidomide) strand SEQ ID NO 3 and POI-i (palbociclib) strand SEQ ID NO 4 (chain 1 ACTCCATCTANTTCTACGCCA; chain 2 TGGCGTAGAANTAGATGGAGT; pomalidomide and palbociclib conjugated; modified_base 1 OTHER; Nucleotide with phosphorothioate linkage; modified_base 2 OTHER; modified_base 3 OTHER; misc_difference 11 E3 ligase attached to 3-Dimethoxytrityloxy-2-(3-(fluorenylmethoxycarbonylamino)propanamido)propyl-1-O-(2-cyanoethyl)-(N,N-diisopropyl)-phosphoramidite modified adenosine, cytidine, thymi; m)			does not elicit a decrease in mRNA levels	over 80%	up to 48 hours	most pronounced degradation of CDK6	20	10	does not elicit a decrease in mRNA levels	weakened intracellular green fluorescence	reduction in CDK6 protein	rescue of CDK6 proteins
